Like-named read-outs stand apart in the source and are kept apart here.
Experiments:
MCF7 breast cancer cells = test: MCF7 breast cancer cell viability (CellTiter-Glo); assay type: cell-based, human; details: 72 hours
Method: Human breast adenocarcinoma (MCF7) cells were purchased from In Vitro Technologies (Victoria, Australia) and cultured according to manufacturer's recommendations using MCF7 growth media, Low glucose Dulbecco's Modified Eagle's medium (DMEM; Sigma-Aldrich, Australia) supplemented with 10% (v/v) foetal calf serum (Sigma-Aldrich) and 1% (v/v) Penicillin-Streptomycin (Sigma-Aldrich). Briefly, 1×10^6 MCF7 were seeded and grown in Corning® T75 flasks (Sigma-Aldrich) in an incubator at 37° C. under 5% CO2 conditions. At 80-90% confluency, MCF7 were washed with Dulbecco's Phosphate Buffered Saline (Sigma-Aldrich) for 30s at room temperature and followed by incubation with Trypsin-EDTA (Sigma-Aldrich) for 5 mins at 37° C. under 5% CO2 conditions. Trypsin solution was then neutralised with 1:1 volume of MCF7 growth media. The cell suspensions were then collected into Corning® 50 mL centrifuge tubes (Sigma-Aldrich) and centrifuged at 300×g for 10 mins at room temperature. The resulting supernatants were discarded and MCF7 pellets were resuspended with 5-10 mL of pre-warmed MCF7 growth media. Total viable cells were enumerated with Invitrogen™ Countess Cell Counter (Thermo Fisher Scientific, New South Wales, Australia) and 9×10^4 live MCF7 were seeded in triplicate into Corning® 96-well white polystyrene microplate (Sigma).
Dox, Dauno and Epi, were dissolved in sterile water to make a stock concentration of 20 mM, respectively, while Tz was dissolved in sterile PBS to a stock concentration of 100 μM. […] The concentrations were as follows 0 nM, 15.62 nM, 62.5 nM, 250 nM, 500 nM, 1 μM, 5 μM, and 10 μM. […] Vehicle controls were incubated with media supplemented with either sterile water or DMSO. […] This was repeated at 48 hours and 72 hours. […] Both FB23/2 and brequinar (MedChemExpress) were dissolved in dimethyl sulfoxide (DMSO; Sigma-Aldrich) to make a stock concentration of 40 mM and 20 mM respectively.

[1] = tested on: H929 multiple myeloma cells; test: H929 multiple myeloma cell viability (CellTiter-Glo); assay type: cell-based, human; details: 72 hours, FIG. 4
Method: Human multiple myeloma NCI-H929 cells were cultured using RPMI-1640 growth media (Sigma-Aldrich), supplemented with 2 mM L-glutamine (Thermo Fisher Scientific), 10% (v/v) foetal calf serum (Sigma-Aldrich) and 0.05 mM 2-mercaptoethanol (Sigma-Aldrich). Briefly, 0.5×10^6 H929 were seeded and grown in Corning® T75 flasks (Sigma-Aldrich) in an incubator at 37° C. under 5% CO2 conditions. At 80-90% confluency, the cell suspension was then collected into Corning® 50 mL centrifuge tubes (Sigma-Aldrich) and centrifuged at 300×g for 10 mins at room temperature. The resulting supernatant were discarded and H929 pellet was resuspended with 5-10 mL of pre-warmed H929 growth media. Total viable cells were enumerated with Invitrogen™ Countess Cell Counter (Thermo Fisher Scientific, New South Wales, Australia) and 1×10^4 live H929 were seeded in triplicate into Corning® 96-well white polystyrene microplate (Sigma). […] The concentrations were as follows 0 nM, 15.62 nM, 62.5 nM, 250 nM, 500 nM, 1 μM, 5 μM, and 10 μM. […] Vehicle controls were incubated with media supplemented with either sterile water or DMSO. […] This was repeated at 48 hours and 72 hours. […] Both FB23/2 and brequinar (MedChemExpress) were dissolved in dimethyl sulfoxide (DMSO; […]

[2] = tested on: MDA-MB-231 breast cancer cells; test: MDA-MB-231 breast cancer cell viability with Webb synergy analysis; assay type: cell-based, human
Method: Human breast cancer cell line NDA-MB-231 was cultured in a humidified chamber at 37° C. with 5% CO2 in DMEM supplemented with 10% foetal bovine serum (FBS), 2 mM L-glutamine and 2% HEPES. Cells were maintained adherent.

[3] = Doxorubicin cardiotoxicity in mice: histologic cardiac fibrosis; assay type: in vivo; details: bisantrene co-administered with doxorubicin at 1:1 molar ratio; Day 21; relative to matched doses of doxorubicin
Source text: (§1) In particular, well established cardiotoxicity markers, including left ventricular fractional shortening, heart E/A ratio, left ventricular diastolic function, left ventricular dilatation, cardiac output, plasma triglyceride levels, plasma creatine kinase-MB (CK-MB), plasma LDH (lactate dehydrogenase) and plasma brain natriuretic peptide (BNP) were monitored over a period of up to 42 days following the start of treatments delivered weekly, four times (and therefore final treatment on day 21).
(§2) Treatments were delivered to mice intravenously on days 0, 7, 14 and 21. Mice underwent echocardiography measurements at days 0, 21 and 42 to determine LVEF, FS, EDV, ESV, CO, E wave, A wave, E′, E/A, and E/E′, and blood samples were taken at days 0, 21 and 42 to assay for cardiac troponin I levels, BNP levels, CK, LDH levels and triglycerides.

[4] = tested on: colon 26, Lewis lung, Ridgway osteosarcoma, B16, Lieberman plasma cell, P388 or L1210 cancer cells; details: cited from earlier work
[5] = Doxorubicin cardiotoxicity in mice: blood tests
Source text: as §1, §2

[6] = bisantrene 3.67 mg/kg + doxorubicin 5 mg/kg (Dox+Bis 1:1)
[7] = bisantrene 5.65 mg/kg + doxorubicin 4 mg/kg (Dox+Bis 80% of 1:2)

C(=NNC1=NCCN1)c1c2ccccc2c(C=NNC2=NCCN2)c2ccccc12 [bisantrene, 9,10-anthracenedicarboxaldehyde bis [(4,5-dihydro-1H-imidazol-2-yl)hydrazone]]
toxicity to MCF7 breast cancer cells (MCF7 breast cancer cells; 0-10 μM bisantrene alone, FIG. 3): concentration-dependent toxicity
interference with toxicity of carfilzomib to MCF7 cells (MCF7 breast cancer cells; 0-10 μM bisantrene with 1 μM carfilzomib, FIG. 3): did not interfere with the toxicity
combined toxicity of bisantrene with doxorubicin or carfilzomib to MCF7 cells (MCF7 breast cancer cells; 0-10 μM bisantrene with 1 μM doxorubicin or 1 μM carfilzomib): additive toxicity
interference with toxicity of doxorubicin to MCF7 cells (MCF7 breast cancer cells; 0-10 μM bisantrene with 1 μM doxorubicin, FIG. 3): did not interfere with the toxicity
toxicity to H929 multiple myeloma cells ([1]; 0-5 μM bisantrene alone): concentration-dependent toxicity
interference with toxicity of carfilzomib to H929 cells ([1]; 0-5 μM bisantrene with 1 μM carfilzomib): did not interfere with the toxicity
toxic effects against MDA-MB-231 breast cancer cells ([2]; bisantrene alone, FIGS. 8 to 10): concentration-dependent toxic effects
combined effect with carfilzomib on MDA-MB-231 cells ([2]; bisantrene with carfilzomib, Webb synergy analysis, FIG. 10C): at least additive to, if not synergistic with
combined effect with doxorubicin on MDA-MB-231 cells ([2]; bisantrene with doxorubicin, Webb synergy analysis, FIGS. 8, 10A): at least additive to, if not synergistic with
combined effect with epirubicin on MDA-MB-231 cells ([2]; bisantrene with epirubicin, Webb synergy analysis, FIGS. 9, 10B): at least additive to, if not synergistic with
histologic cardiac fibrosis [3]: significantly decreased
mitigation of doxorubicin cardiotoxicity: cardiac output [6]: mitigation of doxorubicin cardiotoxicity
mitigation of doxorubicin cardiotoxicity: left ventricular diastolic function [6]: appeared to mitigate the cardiotoxic effects
mitigation of doxorubicin cardiotoxicity: left ventricular dilatation [6]: appeared to mitigate the cardiotoxic effects
mitigation of doxorubicin cardiotoxicity: left ventricular fractional shortening [6]: significantly mitigated
mitigation of doxorubicin cardiotoxicity: cardiac output [7]: even less effect
mitigation of doxorubicin cardiotoxicity: left ventricular fractional shortening [7]: less effect
mitigation of doxorubicin cardiotoxicity: left ventricular fractional shortening (bisantrene 7.33 mg/kg + doxorubicin 5 mg/kg (Dox+Bis 1:2)): significantly mitigated
mitigation of doxorubicin cardiotoxicity: cardiac output (bisantrene 7.33 mg/kg + doxorubicin 5 mg/kg (Dox+Bis 1:2), compared to Dox+Bis 1:1): mitigation of doxorubicin cardiotoxicity was slightly greater
cardiac output (bisantrene 7.33 mg/kg alone): suggestion (but not significant) of mild deleterious effects
left ventricular diastolic function (bisantrene 7.33 mg/kg alone): suggestion (but not significant) of mild deleterious effects
left ventricular dilatation (bisantrene 7.33 mg/kg alone): suggestion (but not significant) of mild deleterious effects
left ventricular fractional shortening (bisantrene 7.33 mg/kg alone, i.v. days 0, 7, 14, 21): suggestion (but not significant) of mild deleterious effects
effectiveness in cancer models [4]: effective
plasma CK-MB levels ([5]; bisantrene 3.67 mg/kg + doxorubicin 5 mg/kg (Dox+Bis 1:1), day 21): kept CK-MB levels down at or near the vehicle-only control levels
mitigation of doxorubicin-induced plasma triglyceride increases ([5]; bisantrene 3.67 mg/kg + doxorubicin 5 mg/kg (Dox+Bis 1:1), day 21 and day 42): significant mitigation
mitigation of doxorubicin-induced plasma triglyceride increases [5, 7]: less effect
plasma CK-MB levels ([5]; bisantrene 7.33 mg/kg + doxorubicin 5 mg/kg (Dox+Bis 1:2), day 21): kept CK-MB levels down at or near the vehicle-only control levels
mitigation of doxorubicin-induced plasma triglyceride increases ([5]; bisantrene 7.33 mg/kg + doxorubicin 5 mg/kg (Dox+Bis 1:2), day 42): significant mitigation
brain natriuretic peptide levels (mitigation of doxorubicin effects) ([5]; bisantrene 7.33 mg/kg + doxorubicin 5 mg/kg (Dox: Bis 1:2), day 42 or day 21): not significant
plasma triglycerides ([5]; bisantrene 7.33 mg/kg alone, day 21, vs vehicle-only control): slight (but insignificant) increase
plasma triglycerides (increase) ([5]; bisantrene 7.33 mg/kg alone, day 42, vs vehicle-only control): not at day 42

Reference: patent US20250025445A1, “METHOD OF CARDIOPROTECTION” (Race Oncology LTD., priority 2021, published 2025)
